Test results: ChEMBL document CHEMBL4840362, “Diterpenoids from the whole plants of Croton yunnanensis and their bioactivities” (Bioorg Med Chem, 2021)
Active and inactive are the calls of the source. The calls are words filed in the database; no cut-off is given here.

Legend:
Type in all cases: functional, cell-based
HL-60 [1] = assay: Cytotoxicity against human HL-60 cells assessed as inhibition of cell growth at 40 uM measured after 48 hrs by MTS assay
A549 [2] = assay: Cytotoxicity against human A549 cells assessed as inhibition of cell growth at 40 uM measured after 48 hrs by MTS assay
SMMC-7721 [3] = assay: Cytotoxicity against human SMMC-7721 cells assessed as inhibition of cell growth at 40 uM measured after 48 hrs by MTS assay
RAW264.7 = assay: Antiinflammatory activity against mouse RAW264.7 cells assessed as inhibition of LPS induced nitric oxide production at 50 uM followed by LPS stimulation incubated for 18 hrs by Griess reagent based assay
SW480 = assay: Cytotoxicity against human SW480 cells assessed as inhibition of cell growth at 40 uM measured after 48 hrs by MTS assay
MCF7 = assay: Cytotoxicity against human MCF7 cells assessed as inhibition of cell growth at 40 uM measured after 48 hrs by MTS assay
SMMC-7721 [4] = assay: Cytotoxicity against human SMMC-7721 cells assessed as inhibition of cell growth measured after 48 hrs by MTS assay; details: SMMC-7721, 48 h
A549 [5] = assay: Cytotoxicity against human A549 cells assessed as inhibition of cell growth measured after 48 hrs by MTS assay; details: A549, 48 h
HL-60 [6] = assay: Cytotoxicity against human HL-60 cells assessed as inhibition of cell growth measured after 48 hrs by MTS assay; details: HL-60, 48 h

How did the Activity (HL-60 [1]) turn out when `COC(=O)C1=CCC[C@H]2C13CC[C@@H](C)[C@]21C[C@@H](c2ccoc2)O[C@@H]1O3` was run?
Its Activity is “inactive”.

What about the Activity (A549 [2]) of the same compound?
Its Activity is “inactive”.

What about the Activity (SMMC-7721 [3]) of the same compound?
Its Activity is “inactive”.

What about the Activity (RAW264.7) of the same compound?
The Activity was “inactive”.

What about the Activity (SW480) of the same compound?
Its Activity is “inactive”.

What about the Activity (MCF7) of the same compound?
The Activity was “inactive”.

`COC(=O)C1=CCC[C@H]2C1=CC[C@@H](C)[C@]21C[C@@H](c2ccoc2)OC1=O` was tested. Which Activity (HL-60 [1]) did it give?
The Activity was “inactive”.

What about the Activity (A549 [2]) of the same compound?
The Activity was “inactive”.

What about the Activity (SMMC-7721 [3]) of the same compound?
The Activity was “inactive”.

What about the Activity (RAW264.7) of the same compound?
Its Activity is “inactive”.

What about the Activity (SW480) of the same compound?
Its Activity is “inactive”.

What about the Activity (MCF7) of the same compound?
Its Activity is “inactive”.

Which Activity (HL-60 [1]) does the source give for `COC(=O)C12C=CC[C@@H]3[C@@H]1CC[C@H](C)[C@@]31C[C@H](c3ccoc3)O[C@H]1O2` here?
Its Activity is “inactive”.

And the Activity (A549 [2])?
The Activity was “inactive”.

What about the Activity (SMMC-7721 [3]) of the same compound?
The Activity was “inactive”.

And the Activity (RAW264.7)?
Its Activity is “inactive”.

What about the Activity (SW480) of the same compound?
Its Activity is “inactive”.

And the Activity (MCF7)?
The Activity was “inactive”.

With `COc1c(C)cc2c(c1O)[C@]1(C)CCC(=O)C(C)(C)C1=C(O)C2=O` as the compound, how does the IC50 (SMMC-7721 [4]) read?
The IC50 was 4.47 µM.

What about the Activity (RAW264.7) of the same compound?
Its Activity is “inactive”.

And the IC50 (A549 [5])?
Its IC50 is 27.4 µM.

What about the IC50 (HL-60 [6]) of the same compound?
Its IC50 is 14.4 µM.

What does the source list for `CCCCCCCCCC(=O)O[C@@H]1[C@@H](C)[C@@]2(O)[C@@H](C=C(CO)C[C@]3(O)C(=O)C(C)=C[C@@H]23)[C@@H]2C(C)(C)[C@]12OC(C)=O`?
Activity (HL-60 [1]): inactive; Activity (A549 [2]): inactive; Activity (SMMC-7721 [3]): inactive; Activity (RAW264.7): inactive; Activity (SW480): inactive; Activity (MCF7): inactive

Which IC50 (SMMC-7721 [4]) does the source give for `CC(=O)O[C@H]1C(=O)[C@@]2(C)[C@H]([C@H](OC(=O)c3ccccc3)[C@]3(O)C[C@H](OC(=O)[C@H](O)[C@@H](NC(=O)c4ccccc4)c4ccccc4)C(C)=C1C3(C)C)[C@]1(OC(C)=O)CO[C@@H]1C[C@@H]2O` [PACLITAXEL] here?
The IC50 was 0.143 µM.

And the IC50 (A549 [5])?
Its IC50 is < 0.008 µM.

What about the IC50 (HL-60 [6]) of the same compound?
Its IC50 is < 0.008 µM.

For `COC(=O)c1cccc2c1CC[C@@H](C)[C@]21C[C@@H](c2ccoc2)OC1=O`, which Activity (HL-60 [1]) is on record?
The Activity was “inactive”.

And the Activity (A549 [2])?
The Activity was “inactive”.

And the Activity (SMMC-7721 [3])?
Its Activity is “inactive”.

What about the Activity (RAW264.7) of the same compound?
The Activity was “inactive”.

And the Activity (SW480)?
Its Activity is “inactive”.

What about the Activity (MCF7) of the same compound?
Its Activity is “inactive”.

Which Activity (HL-60 [1]) does the source give for `COC(=O)C1=CCC[C@@H]2[C@]13CC[C@H](C)[C@@]21C[C@H](c2ccoc2)O[C@H]1OC3=O` here?
The Activity was “inactive”.

What about the Activity (A549 [2]) of the same compound?
Its Activity is “inactive”.

And the Activity (SMMC-7721 [3])?
Its Activity is “inactive”.

What about the Activity (RAW264.7) of the same compound?
The Activity was “inactive”.

And the Activity (SW480)?
The Activity was “inactive”.

What about the Activity (MCF7) of the same compound?
The Activity was “inactive”.

With `COC(=O)[C@@H]1C=CC[C@@H]2C13CC[C@@H](C)[C@]21C[C@@H](c2ccoc2)O[C@@H]1O3` as the compound, how does the Activity (HL-60 [1]) read?
Its Activity is “inactive”.

What about the Activity (A549 [2]) of the same compound?
Its Activity is “inactive”.

What about the Activity (SMMC-7721 [3]) of the same compound?
The Activity was “inactive”.

And the Activity (RAW264.7)?
The Activity was “inactive”.

And the Activity (SW480)?
The Activity was “inactive”.

And the Activity (MCF7)?
Its Activity is “inactive”.

How did the Activity (HL-60 [1]) turn out when `COC(=O)C1=CCC[C@@H]2C13CC[C@H](C)[C@@]21C[C@H](c2ccoc2)O[C@H]1O[C@@H]3O` was run?
The Activity was “inactive”.

What about the Activity (A549 [2]) of the same compound?
The Activity was “inactive”.

And the Activity (SMMC-7721 [3])?
The Activity was “inactive”.

What about the Activity (RAW264.7) of the same compound?
Its Activity is “inactive”.

What about the Activity (SW480) of the same compound?
Its Activity is “inactive”.

And the Activity (MCF7)?
The Activity was “inactive”.
